{"source": "patent US20260234136A1", "about": "“ISOXAZOLIDINES AS RIPK1 INHIBITORS AND USE THEREOF” (GENZYME CORPORATION, priority 2023, published 2026)", "key": {"[1]": {"tested_on": "U937 cells", "experiment": "Cellular assay in U937 cells to measure the activity of RIPK1-inhibitors on cell death (necroptosis)", "type": "cell-based", "settings": "Homo sapiens, U-937, 50 μM zVAD.fmk and 100 ng/ml recombinant human TNFα, overnight (18 to 24 hrs), MTS readout"}, "[2]": {"experiment": "physchem", "settings": "50 mM phosphate buffer, 25 °C, pH 7.4, aqueous buffer, thermodynamic from solid"}}}
{"smiles": "Cc1ccc([C@@H]2CCON2C(=O)[C@@H]2CCN(c3ncnc(-c4ccnn4C)n3)CC23CC3)cn1", "note": "[Example 69, [(8R)-5-[4-(2-methylpyrazol-3-yl)-1,3,5-triazin-2-yl]-5-azaspiro[2.5]octan-8-yl]-[(3S)-3-(6-methylpyridin-3-yl)-1,2-oxazolidin-2-yl]methanone]", "values": [{"measurement": "IC50", "setting": "[1]", "value": 9, "unit": "nM"}, {"measurement": "solubility at 16 h", "setting": "[2]", "value": 601, "unit": "µM"}]}
{"smiles": "O=C1CCCN1c1nccc(N2CCC(C(=O)N3OCC[C@H]3c3cncc(F)c3)CC2)n1", "note": "[Example 71, 1-[4-[4-[(3S)-3-(5-fluoropyridin-3-yl)-1,2-oxazolidine-2-carbonyl]piperidin-1-yl]pyrimidin-2-yl]pyrrolidin-2-one]", "values": [{"measurement": "IC50", "setting": "[1]", "value": 2340, "unit": "nM"}, {"measurement": "solubility at 16 h", "setting": "[2]", "value": "> 1140", "unit": "µM"}]}
{"smiles": "O=C(C1CCN(c2nccc(N3CCC(F)(F)C3=O)n2)CC1)N1OCC[C@H]1c1cncc(F)c1", "note": "[Example 75, 3,3-difluoro-1-[2-[4-[(3S)-3-(5-fluoropyridin-3-yl)-1,2-oxazolidine-2-carbonyl]piperidin-1-yl]pyrimidin-4-yl]pyrrolidin-2-one]", "values": [{"measurement": "IC50", "setting": "[1]", "value": 58, "unit": "nM"}, {"measurement": "solubility at 16 h", "setting": "[2]", "value": 98.4, "unit": "µM"}]}
{"smiles": "Cc1ccc([C@@H]2CCON2C(=O)C2CCN(c3ncc(F)c(-n4ccnc4C)n3)CC2)cn1", "note": "[Example 77, [1-[5-fluoro-4-(2-methylimidazol-1-yl)pyrimidin-2-yl]piperidin-4-yl]-[(3S)-3-(6-methylpyridin-3-yl)-1,2-oxazolidin-2-yl]methanone]", "values": [{"measurement": "IC50", "setting": "[1]", "value": 1, "unit": "nM"}, {"measurement": "solubility at 16 h", "setting": "[2]", "value": "> 1110", "unit": "µM"}]}
{"smiles": "Cc1ccc([C@@H]2CCON2C(=O)C2CCN(c3nccc(N4CCCC4=O)n3)CC2)cn1", "note": "[Example 81, 1-[2-[4-[(3S)-3-(6-methylpyridin-3-yl)-1,2-oxazolidine-2-carbonyl]piperidin-1-yl]pyrimidin-4-yl]pyrrolidin-2-one]", "values": [{"measurement": "IC50", "setting": "[1]", "value": 52, "unit": "nM"}, {"measurement": "solubility at 16 h", "setting": "[2]", "value": "> 1150", "unit": "µM"}]}
{"smiles": "Cc1ccc([C@@H]2CCON2C(=O)C2CCN(c3cc(N4CCCC4=O)ncn3)CC2)cn1", "note": "[Example 82, 1-[6-[4-[(3S)-3-(6-methylpyridin-3-yl)-1,2-oxazolidine-2-carbonyl]piperidin-1-yl]pyrimidin-4-yl]pyrrolidin-2-one]", "values": [{"measurement": "IC50", "setting": "[1]", "value": 10000, "unit": "nM"}, {"measurement": "solubility at 16 h", "setting": "[2]", "value": "> 1150", "unit": "µM"}]}
{"smiles": "Cc1ccc([C@@H]2CCON2C(=O)C2CCN(c3ccnc(N4CCC(C)(C)C4=O)n3)CC2)cn1", "note": "[Example 84, 3,3-dimethyl-1-[4-[4-[(3S)-3-(6-methylpyridin-3-yl)-1,2-oxazolidine-2-carbonyl]piperidin-1-yl]pyrimidin-2-yl]pyrrolidin-2-one]", "values": [{"measurement": "IC50", "setting": "[1]", "value": 8130, "unit": "nM"}, {"measurement": "solubility at 16 h", "setting": "[2]", "value": "> 1080", "unit": "µM"}]}
{"smiles": "Cc1ccc([C@@H]2CCON2C(=O)C2CCN(c3nccc(N4C(=O)CCC4(C)C)n3)CC2)cn1", "note": "[Example 88, 5,5-dimethyl-1-[2-[4-[(3S)-3-(6-methylpyridin-3-yl)-1,2-oxazolidine-2-carbonyl]piperidin-1-yl]pyrimidin-4-yl]pyrrolidin-2-one]", "values": [{"measurement": "IC50", "setting": "[1]", "value": 1360, "unit": "nM"}, {"measurement": "solubility at 16 h", "setting": "[2]", "value": "> 1080", "unit": "µM"}]}
{"smiles": "O=C1OCCN1c1ccnc(N2CCC(C(=O)N3OCC[C@H]3c3cncc(F)c3)CC2)n1", "note": "[Example 91, 3-[2-[4-[(3S)-3-(5-fluoropyridin-3-yl)-1,2-oxazolidine-2-carbonyl]piperidin-1-yl]pyrimidin-4-yl]-1,3-oxazolidin-2-one]", "values": [{"measurement": "IC50", "setting": "[1]", "value": 7, "unit": "nM"}, {"measurement": "solubility at 16 h", "setting": "[2]", "value": "> 1130", "unit": "µM"}]}
{"smiles": "CO[C@@H]1CCCN(c2ccnc(N3CCC(C(=O)N4OCC[C@H]4c4ccc(C)nc4)CC3)n2)C1=O", "note": "[Example 93, (3R)-3-methoxy-1-[2-[4-[(3S)-3-(6-methylpyridin-3-yl)-1,2-oxazolidine-2-carbonyl]piperidin-1-yl]pyrimidin-4-yl]piperidin-2-one]", "values": [{"measurement": "IC50", "setting": "[1]", "value": 436, "unit": "nM"}, {"measurement": "solubility at 16 h", "setting": "[2]", "value": "> 1040", "unit": "µM"}]}
{"smiles": "CO[C@H]1CCCN(c2ccnc(N3CCC(C(=O)N4OCC[C@H]4c4ccc(C)nc4)CC3)n2)C1=O", "note": "[Example 94, (3S)-3-methoxy-1-[2-[4-[(3S)-3-(6-methylpyridin-3-yl)-1,2-oxazolidine-2-carbonyl]piperidin-1-yl]pyrimidin-4-yl]piperidin-2-one]", "values": [{"measurement": "IC50", "setting": "[1]", "value": 216, "unit": "nM"}, {"measurement": "solubility at 16 h", "setting": "[2]", "value": "> 1040", "unit": "µM"}]}
